Measured values reported in paper PMC10202811 (Nature Medicine, 2023).
Where “and” joins values, the source holds several entries; their conditions need not be identical. Identical values can stand only once.

How the values were obtained:
[1] = test system: ALK-driven refractory or relapsed neuroblastoma; assay: Soft tissue response by RECIST; type: in vivo, human
Description: Patients underwent disease staging at baseline, after courses 2 and 4 and then every four courses thereafter. The primary endpoint for response analysis is the BOR, defined as the best response observed before progression or start of another therapy. […] Response was graded according to the NANT response criteria version 2.0 (ref. [26]), modified from the International Neuroblastoma Response Criteria (INRC)[48]. NANT response criteria use three components for assessment of overall response: soft tissue response assessed by anatomical imaging and avidity on MIBG or FDG-PET; bone response assessed by uptake in bone by MIBG or bone involvement on FDG-PET; and bone marrow response assessed by morphology on bilateral aspirates and biopsies. Each response component (soft tissue, bone and bone marrow) are graded as CR, PR, SD and PD. Overall response grading is defined as: CR, if a response of CR in all components that are involved at baseline; PR, if a response of PR or better in all involved components; MR, if a response of PR or better but with at least one involved component as SD and no PD in all involved components; SD, if a response of SD in all involved components; and PD, if a response of PD in at least one involved component. The overall response definitions are identical to overall responses (CR, PR, SD and PD) as defined by the INRC. Response assessment is initially performed by sites and reviewed against source documents by NANT operations. Additional blinded central review of all radiological or pathological data was conducted for patients with overall PR or better and, in addition, radiologic pathological data of all involved sites for patients with MR to assign the final BOR on this study. Response by MIBG was determined using the Curie criteria. RR was determined as the proportion of patients with BOR of CR and PR in each cohort. […]

[2] = test system: neuroblastoma-derived xenografts harboring F1174L, F1245C or R1275Q ALK mutations; conditions: cited from earlier work

C[C@H]1Oc2cc(cnc2N)-c2c(nn(C)c2C#N)CN(C)C(=O)c2ccc(F)cc21 [Lorlatinib, (10R)-7-amino-12-fluoro-2,10,16-trimethyl-15-oxo-10,15,16,17-tetrahydro-2H-8,4-(metheno)pyrazolo[4,3-h][2,5,11]-benzoxadiazacyclotetradecine-3-carbonitrile]
Soft tissue % change from baseline ([1]; Cohort A1, individual patient): 1% and -3.77% and -4% and -7% and -17% and -21% and -29% and -36% and -41% and -50% and -63% and -70% and -100% and 200% and 121% and 100% and 61% and 20% and 6%
Soft tissue % change from baseline ([1]; Cohort A2, individual patient): 1% and -11% and -23% and -27% and -28% and -30% and -41% and -68%
Soft tissue % change from baseline ([1]; Cohort B2, individual patient): 1% and -9% and -12% and -45%
anti-tumor doses lower than crizotinib ([2]; ALK-driven neuroblastoma pre-clinical models in vivo): 10–30 fold
effect on xenograft tumors ([2]; crizotinib-resistant and sensitive xenografts): complete tumor regression
